Source: patent US20230023285A1, “PHARMACEUTICAL COMPOSITION FOR USE IN PREVENTING OR STOPPING METASTASES” (LOGICK ENERGETICS B.V., priority 2019, published 2023)

Key:
[1] = system: EpCAM; assay: EpCAM gene expression by qPCR in MTΔECad cells; format: cell-based, mouse; conditions: qPCR normalized to GAPDH
Description: (§1) For the stimulation of MTΔECad cells the following concentrations were used: PPS (5 μg/ml), Indomethacin (50 μM), en Pioglitazone (10 μM).
(§2) Untreated cell lines were employed as negative controls. As read-outs of adipogenesis, several approaches were tested: • 1. Oil red O staining by histochemistry. • 2. Nile Red staining by immuno-fluorescence (IF) • 3. RTqPCR (gene expression analysis) • Adiponectin (adipocyte marker) • EpCam (marker for epithelial cells) FIGS. 15a-d show stimulation schemes; FIGS. 15a-b according to prior art, and FIGS. 15c-15d according to the present invention.
(§3) Inventors studied the effect of treatment of MTΔECad cells with the different compounds and combinations on EpCAM expression as a marker for epithelial cells and Adiponectin expression as a marker for adipocytes.
(§4) Steps performed when measuring gene expression using real-time PCR.
(§5) RNA was first isolated and characterized for quantity and integrity. During a two-step reaction, cDNA was first synthesized and then used as a PCR template. The housekeeping gene GAPDH was used for normalizing the results. A normalization factor has been used for calculating each individual sample. Dividing the fluorescent data by its normalization factor produced the normalized data, which was followed by statistical analysis.

[2] = system: Adiponectin; assay: Adiponectin gene expression by qPCR in MTΔECad cells; format: cell-based, mouse; conditions: qPCR normalized to GAPDH
Description: as §1, §2, §3, §4, §5

With COc1ccc2c(c1)c(CC(=O)O)c(C)n2C(=O)c1ccc(Cl)cc1 [Indomethacin] the EpCAM gene expression [1] was “clearly stimulated EpCAM expression” and the adiponectin gene expression [2] was “obviously stimulated adiponectin gene expression”.

Pentosan polysulphate [PPS] was tested, and the EpCAM gene expression [1] was “no significant effect” and the adiponectin gene expression [2] was “no effect”.
